Like-named read-outs stand apart in the source and are kept apart here.
Key:
IRAK4 = IRAK4 (Homo sapiens (Human), UniProt Q9NWZ3); experiment: IRAK4 Inhibition Assay; format: biochemical; settings: ATP 500 μM, read-out: IRAK4 IC50
Procedure, shortened: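 IRAK4 combined with fluorescent substrate and compounds, reacted 60 min at room temperature, stopped with 35 mM EDTA. Substrate and phosphorylated product separated electrophoretically on a Caliper LabChip 3000 mobility-shift reader.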

[1] = system: TLR2 induced IL-6 in peripheral blood mononuclear cells (PBMCs); experiment: PBMC TLR2 Induced IL-6 Assay; format: cell-based, human; settings: IL-6 by ELISA; for IC50: read-out: Cell IC50; for EC50: read-out: Cell EC50
Procedure, shortened: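 Lipoteichoic acid at 10 µg/ml served as TLR2 stimulus for 5 hours, following a 30-minute compound pretreatment at 37° C. Cells were Ficoll-isolated human PBMCs, 250000 cells/well, cultured in RPMI plus 10% heat-inactivated FCS.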

[2] = Homo sapiens, PBMC, PBMC TLR2 Induced IL-6 Assay, lipoteichoic acid stimulation
[3] = Homo sapiens, PBMC, human PBMCs, lipoteichoic acid stimulated
[4] = PBMC TLR2 Induced IL-6 Assay, lipoteichoic acid stimulation
[5] = human PBMCs, lipoteichoic acid stimulated

Chain of IRAK4 (Q9NWZ3 whole entry, species assumed): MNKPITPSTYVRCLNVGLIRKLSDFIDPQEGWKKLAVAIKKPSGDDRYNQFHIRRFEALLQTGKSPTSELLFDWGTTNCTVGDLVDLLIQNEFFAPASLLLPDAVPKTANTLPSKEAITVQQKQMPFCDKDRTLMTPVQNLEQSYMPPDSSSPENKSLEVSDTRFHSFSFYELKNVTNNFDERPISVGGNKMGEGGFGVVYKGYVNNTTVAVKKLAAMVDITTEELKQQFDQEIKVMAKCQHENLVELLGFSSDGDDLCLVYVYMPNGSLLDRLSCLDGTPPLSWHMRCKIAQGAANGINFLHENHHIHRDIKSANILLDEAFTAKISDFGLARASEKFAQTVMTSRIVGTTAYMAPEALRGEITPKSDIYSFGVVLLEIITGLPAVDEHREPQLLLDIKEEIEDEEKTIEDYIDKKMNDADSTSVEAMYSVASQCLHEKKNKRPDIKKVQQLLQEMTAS

| Structure (SMILES) | IC50 (IRAK4; IRAK4 Inhibition Assay) | IC50 [1, 2] | EC50 [1, 2] | also measured |
| --- | --- | --- | --- | --- |
| CC(C)(O)[C@H](F)CNC(=O)c1cnc(-n2ncc3cc(C#N)cnc32)cc1Nc1cnn(C2CCOCC2)c1 [Example 349] | 0.0033 µM | 0.18 µM | – | – |
| CC(C)(O)[C@H](F)CNC(=O)c1cnc(-n2ncc3cc(C#N)cnc32)cc1NC12CC3CC(CC(O)(C3)C1)C2 [Example 624] | – | – | – | IC50 (IRAK4; IRAK4 0.6 nM): 0.0021 µM; IC50 [1, 3]: 0.068 µM |
| CC(C)Nc1cc(-n2ncc3cc(C#N)cnc32)ncc1C(=O)NCC(F)C1(O)COC1 (stereo not drawn) [Example 243] | 0.0053 µM | – | 0.298 µM | IC50 [1, 4]: 1.99 µM |
| CC(C)Nc1cc(-n2ncc3cc(C#N)cnc32)ncc1C(=O)NCCNS(C)(=O)=O [Example 219] | 0.0149 µM | 0.678 µM | 0.502 µM | – |
| [2H]C([2H])([2H])NC(=O)[C@H]1CC[C@H](NC(=O)c2cnc(-n3ncc4cc(C#N)cnc43)cc2NC(C)C)CC1 [Example 162, 6-(5-cyano-1H-pyrazolo[3,4-b]pyridin-1-yl)-4-(isopropylamino)-N-((trans)-4-((^2H3)methylcarbamoyl)cyclohexyl)nicotinamide] | 0.0038 µM | – | 0.129 µM | – |
| CC(C)Nc1cc(-n2ncc3cc(C#N)cnc32)ncc1C(=O)Nc1ccc(N2CCOCC2)nc1 [Example 216] | 0.0045 µM | – | 0.253 µM | – |
| CC(CCF)Nc1cc(-n2ncc3cc(C#N)cnc32)ncc1C(=O)NC[C@@H](F)C(C)(C)O (mixture of isomers) [Example 205] | 0.007 µM | – | 0.24 µM | – |
| CNC(=O)[C@H]1CC[C@H](NC(=O)c2cnc(-n3ccc4cc(C#N)cnc43)cc2N[C@@H](C)CO)CC1 [Example 89, 6-(5-cyano-1H-pyrrolo[2,3-b]pyridin-1-yl)-4-(((S)-1-hydroxypropan-2-yl)amino)-N-((1r,4S)-4-(methylcarbamoyl)cyclohexyl)nicotinamide] | 0.0033 µM | – | 0.09 µM | – |
| CC(C)Nc1cc(-n2ncc3cc(C#N)cnc32)ncc1C(=O)NCC(F)C1(O)COC1 (stereo not drawn) [Example 249] | 0.0061 µM | – | – | IC50 [1, 4]: 0.355 µM |
| CC(C)Nc1cc(-n2ccc3cc(CNC(=O)C4CCOC4)cnc32)ncc1C(=O)NC[C@@H](F)C(C)(C)O (stereo partly drawn) [Example 520] | – | – | – | IC50 (IRAK4; IRAK4 0.6 nM): 0.0105 µM; IC50 [1, 3]: 0.347 µM |
| CC(C)Nc1cc(-n2ccc3cc(C#N)cnc32)ncc1C(=O)N[C@H]1CC[C@](F)(c2ccnn2C)CC1 [Example 174, 6-(5-Cyano-1H-pyrrolo[2,3-b]pyridin-1-yl)-N-((1s,4s)-4-fluoro-4-(1-methyl-1H-pyrazol-5-yl)cyclohexyl)-4-(isopropylamino)nicotinamide] | 0.0033 µM | – | 0.182 µM | – |
| CC(C)Nc1cc(-n2ncc3cc(C#N)cnc32)ncc1C(=O)NCCC1CCOCC1 [Example 310] | 0.0045 µM | 0.023 µM | – | – |
| CC(C)(O)[C@H](F)CNC(=O)c1cnc(-n2ccc3cc(C#N)cnc32)cc1Nc1ccc2[nH]ncc2c1 [Example 438] | – | – | – | IC50 (IRAK4; IRAK4 0.6 nM): 0.0025 µM; EC50 [1, 3]: 0.033 µM |
| C[C@@H](CF)Nc1cc(-n2ccc3cc(C#N)cnc32)ncc1C(=O)NCCC(C)(C)O [Example 119, (S)-6-(5-cyano-1H-pyrrolo[2,3-b]pyridin-1-yl)-4-((1-fluoropropan-2-yl)amino)-N-(3-hydroxy-3-methylbutyl)nicotinamide] | 0.0044 µM | – | 0.091 µM | – |
| CC(C)(O)[C@H](F)CNC(=O)c1cnc(-n2ccc3cc(C#N)cnc32)cc1Nc1ccc(-n2cccn2)cc1 [Example 67] | 0.0017 µM | – | 0.102 µM | – |
| CC(C)Nc1cc(-n2ncc3cc(C#N)cnc32)ncc1C(=O)Nc1cnc(N2CCOCC2)nc1 [Example 224] | 0.0067 µM | 0.159 µM | 0.303 µM | – |
| CC(C)(O)[C@H](F)CNC(=O)c1cnc(-n2ccc3cc(C#N)cnc32)cc1NC1CCC(NCC(F)(F)F)C1 (stereo partly drawn) [Example 488] | – | – | – | IC50 (IRAK4; IRAK4 0.6 nM): 0.0068 µM; EC50 [1, 3]: 0.208 µM; IC50 [1, 5]: 0.379 µM |
| CC(C)(C)Nc1cc(-n2ncc3cc(C#N)cnc32)ncc1C(=O)NC[C@@H](F)C(C)(C)O [Example 286] | 0.0017 µM | 0.158 µM | – | – |
| CC(C)(O)[C@H](F)CNC(=O)c1cnc(-n2ccc3cc(C#N)cnc32)cc1NC1COC1 [Example 437] | – | – | – | IC50 (IRAK4; IRAK4 0.6 nM): 0.001 µM; EC50 [1, 3]: 0.042 µM |
| CCNc1cc(-n2ccc3cc(C#N)cnc32)ncc1C(=O)NC[C@@H](F)C(C)(C)O [Example 4, (R)-6-(5-cyano-1H-pyrrolo[2,3-b]pyridin-1-yl)-4-(ethylamino)-N-(2-fluoro-3-hydroxy-3-methylbutyl) nicotinamide] | 0.0014 µM | 0.157 µM | 0.015 µM | – |
| CC(C)Nc1cc(-n2ncc3cc(C#N)cnc32)ncc1C(=O)NCCc1ccncc1 [Example 259] | 0.0025 µM | 0.102 µM | – | – |

| Structure (SMILES) | IC50 (IRAK4; IRAK4 Inhibition Assay) | IC50 [1, 2] | EC50 [1, 2] | also measured |
| --- | --- | --- | --- | --- |
| CC(C)CCNc1cc(-n2ccc3cc(C#N)cnc32)ncc1C(=O)NC[C@@H](F)C(C)(C)O [Example 19, (R)-6-(5-cyano-1H-pyrrolo[2,3-b]pyridin-1-yl)-N-(2-fluoro-3-hydroxy-3-methylbutyl)-4-(isopentylamino) nicotinamide] | 0.0032 µM | – | 0.252 µM | – |
| CC(C)Nc1cc(-n2ccc3cc(C#N)cnc32)ncc1C(=O)NC1CCc2nc(N)sc2C1 (stereo not drawn) [Example 73, N-(2-amino-4,5,6,7-tetrahydrobenzo[d]thiazol-6-yl)-6-(5-cyano-1H-pyrrolo[2,3-b]pyridin-1-yl)-4-(isopropylamino)nicotinamide] | 0.0131 µM | – | 0.189 µM | – |
| CC(C)(O)[C@H](F)CNC(=O)c1cnc(-n2ncc3cc(C#N)cnc32)cc1Nc1cnn(CCCF)c1 [Example 368] | 0.0024 µM | 0.061 µM | – | – |
| CC(C)(O)[C@H](F)CNC(=O)c1cnc(-n2ccc3cc(C#N)cnc32)cc1Nc1cccc(-c2ncc[nH]2)c1 [Example 431] | – | – | – | IC50 (IRAK4; IRAK4 0.6 nM): 0.0021 µM; EC50 [1, 3]: 0.106 µM |
| CC(C)(O)[C@H](F)CNC(=O)c1cnc(-n2ncc3cc(C#N)cnc32)cc1Nc1cnn(-c2ncccn2)c1 [Example 410] | – | – | – | IC50 (IRAK4; IRAK4 0.6 nM): 0.0015 µM; EC50 [1, 3]: 0.092 µM |
| CC(C)C(O)CNc1cc(-n2ncc3cc(Cl)cnc32)ncc1C(=O)NC[C@@H](F)C(C)(C)O (single isomer, unassigned) [Example 594] | – | – | – | IC50 (IRAK4; IRAK4 0.6 nM): 0.0175 µM; IC50 [1, 3]: 0.319 µM |
| CC(C)(O)[C@H](F)CNC(=O)c1cnc(-n2ccc3cc(C#N)cnc32)cc1NCC1(O)CCC1 [Example 28, (R)-6-(5-cyano-1H-pyrrolo[2,3-b]pyridin-1-yl)-N-(2-fluoro-3-hydroxy-3-methylbutyl)-4-(((1-hydroxycyclobutyl)methyl)amino)nicotinamide] | 0.0028 µM | – | 0.08 µM | – |
| CC(=O)N[C@H]1CC[C@H](NC(=O)c2cnc(-n3ncc4cc(C#N)c(N)nc43)cc2NC(C)C)CC1 [Example 317] | 0.0038 µM | 0.172 µM | – | – |
| CC(C)(O)[C@H](F)CNC(=O)c1cnc(-n2ncc3cc(C#N)cnc32)cc1Nc1ccn(CC(F)(F)F)n1 [Example 408] | – | – | – | IC50 (IRAK4; IRAK4 0.6 nM): 0.0018 µM; IC50 [1, 3]: 0.073 µM |
| Cn1nnnc1-c1ccc(Nc2cc(-n3ccc4cc(C#N)cnc43)ncc2C(=O)NC[C@@H](F)C(C)(C)O)cc1 [Example 69, (R)-6-(5-cyano-1H-pyrrolo[2,3-b]pyridin-1-yl)-N-(2-fluoro-3-hydroxy-3-methylbutyl)-4-((4-(1-methyl-1H-tetrazol-5-yl)phenyl)amino)nicotinamide] | 0.0013 µM | – | 0.05 µM | – |
| COCCn1cc(Nc2cc(-n3ncc4cc(C#N)cnc43)ncc2C(=O)NC[C@@H](F)C(C)(C)O)cn1 [Example 363] | 0.0032 µM | 0.459 µM | – | – |
| CC(C)(O)[C@H](F)CNC(=O)c1cnc(-n2ncc3cc(C#N)cnc32)cc1NC1CCCOC1 (single isomer, unassigned) [Example 142] | 0.0114 µM | – | 0.354 µM | – |
| CS(=O)(=O)[C@H]1CC[C@H](NC(=O)c2cnc(-n3ccc4cc(C#N)cnc43)cc2Nc2cccc(C(N)=O)c2)CC1 [Example 105, 4-((3-Carbamoylphenyl)amino)-6-(5-cyano-1H-pyrrolo[2,3-b]pyridin-1-yl)-N-((trans)-4-(methylsulfonyl)cyclohexyl)nicotinamide] | 0.0039 µM | – | 0.437 µM | – |
| CC(C)(C)CNc1cc(-n2ncc3cc(C#N)cnc32)ncc1C(=O)NC[C@@H](F)C(C)(C)O [Example 576] | – | – | – | IC50 (IRAK4; IRAK4 0.6 nM): 0.0058 µM; IC50 [1, 3]: 0.153 µM |
| CC(C)[C@@H](CO)Nc1cc(-n2ncc3cc(C#N)cnc32)ncc1C(=O)NC[C@@H](F)C(C)(C)O [Example 569] | – | – | – | IC50 (IRAK4; IRAK4 0.6 nM): 0.013 µM; EC50 [1, 3]: 0.242 µM |
| CC(C)Nc1cc(-n2ncc3cc(C#N)cnc32)ncc1C(=O)NCCC(C)(C)NS(C)(=O)=O [Example 306] | 0.0048 µM | 0.8 µM | – | – |
| CC(=O)Nc1cccc(Nc2cc(-n3ccc4cc(C#N)cnc43)ncc2C(=O)NC[C@@H](F)C(C)(C)O)c1 [Example 54, (R)-4-((3-acetamidophenyl)amino)-6-(5-cyano-1H-pyrrolo[2,3-b]pyridin-1-yl)-N-(2-fluoro-3-hydroxy-3-methylbutyl) nicotinamide] | 0.0018 µM | – | 0.254 µM | – |
| CC(C)(O)[C@H](F)CNC(=O)c1cnc(-n2ncc3cc(F)cnc32)cc1NC1CCC(F)C1 (stereo partly drawn) [Example 621] | – | – | – | IC50 (IRAK4; IRAK4 0.6 nM): 0.004 µM; EC50 [1, 5]: 0.139 µM |
| CC(C)Nc1cc(-n2ncc3cc(C#N)cnc32)ncc1C(=O)NC[C@@H](F)C(O)(C1CC1)C1CC1 [Example 315] | 0.0107 µM | 0.267 µM | – | – |
| CC(C)(O)[C@H](F)CNC(=O)c1cnc(-n2ncc3cc(C#N)cnc32)cc1Nc1cnn(CCC#N)c1 [Example 376] | 0.0021 µM | 0.349 µM | – | – |

From patent US9169252B2 (BRISTOL-MYERS SQUIBB COMPANY, priority 2014, dated 2015)
